The source of these data is patent US6924298B2, “2-(3,5-Disubstituted-4-pyridyl)-4-(thienyl, thiazolyl or arylphenyl)-1,3-oxazoline compounds” (Dow AgroSciences LLC, priority 2000, dated 2005).

Read-outs that look alike come from different tables or passages of the source.

Common to all, as to assay type: in vivo
Assay [1] deals with two-spotted spider mite (Tetranychus urticae). In words: Insecticidal test for two-spotted spider mite, ovicide method on cotton leaf discs. To be noted: hatched larvae after 6 days; for pest or weed control: Tetranychus urticae, foliar, 144 h, read-out: SM: activity against two-spotted spider mite (% Control rating). The procedure:
Insecticidal Test for Two-Spotted Spider Mite (Tetranychus urticae) Ovicide Method: Ten adult female two-spotted spider mites were placed on eight 2.2 cm leaf discs of cotton leaf, allowed to oviposit over 24 hours, and thereafter removed. […] Discs were placed on an agar substrate and held at 24° C. and 90% RH for 6 days.

Assay [2] deals with tobacco budworm (Heliothis virescens). Description: Insecticidal test for tobacco budworm, treated cotton cotyledon leaf disc. To be noted: for pest or weed control at 400 ppm: Heliothis virescens, foliar, 120 h, read-out: TBW: activity at 400 ppm against tobacco budworm (% Control rating). The procedure:
(§1) Insecticidal Test for Tobacco Budworm (Heliothis virescens), Beet Armyworm (Spodoptera exigua), and Cabbage Looper (Trichoplusia ni).
(§2) To prepare the test solution, the test compound was formulated at 400 ppm in 7.5 mL of 2 acetone:1 tap water. 250 μL of the test solution was pipetted upon the surface of 8 mL of lepidopteran diet (modified Shorey) contained in each of five one-ounce plastic cups (one cup=1 replication). A second-instar beet armyworm was placed upon the treated diet in each cup once the solvent had air-dried. The solutions remaining after completing applications to the one-ounce cups were then used as leaf-dip solutions for 3.5 cm leaf discs cut from cabbage leaves and cotton cotyledons. Five discs of each type of plant were dipped until thoroughly coated into each rate of each compound (=5 replications of each treatment). After air-drying, the treated leaf discs were placed individually into one-ounce plastic cups. Each dried, treated cotton cotyledon disc was infested with a 2nd instar tobacco budworm larva, and each cabbage leaf disc was infested with a 2nd instar cabbage looper larva. Cups containing the treated substrates and larvae were capped and then held in a growth chamber at 25° C., 50-55% RH, and 14 hr light: 10 hr dark for 5 days.

In assay [3] the test system is cotton aphid (Aphis gossypii). Description: Insecticidal test for cotton aphid, spray on infested squash cotyledons. To be noted: for pest or weed control at 50 ppm: Aphis gossypii, 72 h, read-out: CA: activity at 50 ppm against cotton aphid (% Control rating). The procedure: Insecticidal Test for Cotton Aphid (Aphis gossypii)
To prepare spray solutions, 1 mg of each test compound was dissolved into 1 mL of a 90:10 acetone:ethanol solvent. This 1 mL of chemical solution was added to 19 mL of water containing 0.05% Tween 20 surfactant to produce a 50 ppm spray solution.
Squash cotyledons were infested with cotton aphid (all life stages)16-20 hours prior to application of spray solution. The solution was sprayed on both sides of each infested squash cotyledon (0.5 mL×2 each side) with a sweeping action until runoff. The plants were allowed to air dry and held for 3 days in a controlled room at 26° C. and 40% RH after which time the test was graded. Grading was by actual count using a dissecting microscope and comparison of test counts to the untreated check. Results are given in Tables 1-4 as percent control based on population reduction versus the untreated.

The subject of assay [4] is cabbage looper (Trichoplusia ni). Description: Insecticidal test for cabbage looper, treated cabbage leaf disc. To be noted: for pest or weed control at 400 ppm: Trichoplusia ni, foliar, 120 h, read-out: CL: activity at 400 ppm against cabbage looper (% Control rating). The procedure: as §1, §2
The test system of assay [5] is beet armyworm (Spodoptera exigua). In words: Insecticidal test for beet armyworm, treated lepidopteran diet. To be noted: for pest or weed control at 400 ppm: Spodoptera exigua, 120 h, read-out: BAW: activity at 400 ppm against beet armyworm (% Control rating). The procedure:
as §1, §2

In assay [6] the test system is sweetpotato whitefly (Bemisia tabacia). In words: Insecticidal test for sweetpotato whitefly, spray on cotton plants. To be noted: 312 h, 200 ppm spray, large nymphs counted after 13 days, read-out: WF: activity at 200 ppm against whitefly (% Control rating). The procedure: Insecticidal Test for Sweetpotato Whitefly (Bemisia tabacia)
Four mg of each test compound was dissolved by adding 4 mL of a 90:10 acetone:ethanol solvent mixture to the vial containing the sample compound. This solution was added to 16 mL of water containing 0.05% Tween 20 surfactant to produce 20 mL of a 200 ppm spray solution.
Five-week-old cotton plants reared in a greenhouse were stripped of all foliage except for the two uppermost true leaves that were greater than 5 cm in diameter.
These plants were then placed into a laboratory colony of whiteflies for two days for oviposition by the colony females. All whiteflies were then removed from the test plants with pressurized air. The spray solution was then applied to the test plants with a hand-held syringe fitted with hollow cone nozzle. One mL of spray solution was applied to each leaf top and bottom for a total of 4 mL per plant. Four replications of each test compound utilized a total of 16 mL spray solution. Plants were air dried and then placed in a holding chamber (28° C. and 60% RH) for 13 days. Compound efficacy was evaluated by counting, under an illuminated magnifying glass, the number of large nymphs (3rd-4th instar) per leaf.
Percent control based on reduction of large nymphs of a test compound compared to solution-only (no test compound) sprayed plants is reported in Tables 1-4.

The mark [7] stands for this setting: 400 ppm, leaf-dip cotton cotyledon disc, 2nd instar larvae, 5 days.
[8] abbreviates: 50 ppm spray, squash cotyledons, all life stages, 3 days.
[9] abbreviates: 400 ppm, leaf-dip cabbage leaf disc, 2nd instar larvae, 5 days.
[10] abbreviates: 400 ppm, treated diet surface, second-instar larvae, 5 days.

On to `Fc1ccc(-c2ccc(C3COC(c4c(Cl)cncc4Cl)=N3)cc2)cc1C(F)(F)F` (stereo not drawn) [Compound 29], for which the pest or weed control in assay [1] lay in the range of 70 to 79%. The pest or weed control at 400 ppm was 80 to 89% in assay [2] (setting [7]), 90 to 100% in assay [4] (setting [9]) and 80 to 89% in assay [5] (setting [10]). For the same compound, the pest or weed control at 50 ppm in assay [3] (setting [8]) is below 50%.
Consider “4-[5-Methyl-4-(4′-trifluoromethoxybiphenyl)-4-yl)-4,5-dihydro-oxazol-2-yl]-3,5-dichloropyridines [Compound 47]”, for which the “SM: activity at 2.5 ppm against two-spotted spider mite (% Control rating)” value in assay [1] is given as “A (90-100)”. Moreover, the “TBW: activity at 400 ppm against tobacco budworm (% Control rating)” value in assay [2] (setting [7]) is reported as “A (90-100)”. Further, in assay [3] (setting [8]), the “CA: activity at 50 ppm against cotton aphid (% Control rating)” value was “A (90-100)”. The “CL: activity at 400 ppm against cabbage looper (% Control rating)” value in assay [4] (setting [9]) was “A (90-100)”. Moreover, the “BAW: activity at 400 ppm against beet armyworm (% Control rating)” value in assay [5] (setting [10]) is listed as “A (90-100)”.
For `Fc1cncc(F)c1C1=NC(c2ccc(-c3ccc(C(F)(F)F)cc3)cc2)CO1` (stereo not drawn) [Compound 39, 2-(3,5-difluoro-4-pyridinyl)-4-(4-(4-trifluoromethylphenyl)phenyl)-oxazoline], in assay [1], the pest or weed control is 90 to 100%. The pest or weed control at 50 ppm in assay [3] (setting [8]) is below 50%. Moreover, the pest or weed control at 200 ppm in assay [6] is below 50%. The pest or weed control at 400 ppm in assay [4] (setting [9]) lay within 90 to 100%; in assay [5] (setting [10]) it was 80 to 89%.
Regarding `Fc1cccc(-c2ccc(C3COC(c4c(Cl)cncc4Cl)=N3)cc2)c1` (stereo not drawn) [Compound 19], the pest or weed control in assay [1] was in the range of 90 to 100%. The pest or weed control at 50 ppm in assay [3] (setting [8]) is below 50%. In addition, the pest or weed control at 200 ppm in assay [6] is below 50%. In addition, the pest or weed control at 400 ppm in assay [4] (setting [9]) is 60 to 69%.
Consider `Cc1cccc(-c2ccc(C3COC(c4c(Cl)cncc4Cl)=N3)cc2)c1` (stereo not drawn) [Compound 27], for which, in assay [1], the pest or weed control was in the range of 80 to 89%. The figures for the pest or weed control at 400 ppm in assay [2], in assay [4] and in assay [5] were below 50%, 90 to 100% and 90 to 100%, respectively. Moreover, in assay [3], the pest or weed control at 50 ppm lay in the range of 90 to 100%.
For the compound `Fc1cncc(F)c1C1=NC(c2ccc(I)cc2)CO1` (stereo not drawn) [Compound 38, 2-(3,5-difluoro-4-pyridinyl)-4-(4-iodophenyl)oxazoline], the pest or weed control in assay [1] lay within 90 to 100%. In assay [3] (setting [8]), the pest or weed control at 50 ppm was below 50%. Besides, in assay [6], the pest or weed control at 200 ppm is 90 to 100%. Besides, the pest or weed control at 400 ppm in assay [5] (setting [10]) lay in the range of 70 to 79%.
As for `FC(F)(F)Oc1ccc(-c2ccc(C3COC(c4c(Cl)cncc4Cl)=N3)cc2)cc1` (stereo not drawn) [Compound 6], in assay [1], the pest or weed control is 90 to 100%. Further, the pest or weed control at 50 ppm in assay [3] (setting [8]) lay in the range of 90 to 100%. The pest or weed control at 200 ppm in assay [6] is below 50%. For the same compound, the pest or weed control at 400 ppm in assay [4] (setting [9]) and in assay [5] (setting [10]) was 90 to 100% in each case.
Turning to `FC(F)(F)c1ccc(-c2ccc(C3COC(c4c(Cl)cncc4Cl)=N3)cc2)c(Cl)c1` (stereo not drawn) [Compound 17], in assay [1], the pest or weed control lay in the range of 90 to 100%. Further, in assay [3] (setting [8]), the pest or weed control at 50 ppm fell in the range of 60 to 69%. Further, the pest or weed control at 200 ppm in assay [6] is below 50%. Moreover, the pest or weed control at 400 ppm in assay [4] (setting [9]) and in assay [5] (setting [10]) was 90 to 100% in each case.
Take `Fc1ccc(-c2ccc(C3COC(c4c(Cl)cncc4Cl)=N3)cc2)cc1` (stereo not drawn) [Compound 21]: in assay [1], the pest or weed control fell in the range of 90 to 100%. In assay [3] (setting [8]), the pest or weed control at 50 ppm fell in the range of 90 to 100%. In addition, in assay [6], the pest or weed control at 200 ppm is below 50%. In assay [5] (setting [10]), the pest or weed control at 400 ppm is 80 to 89%.
In the case of `Fc1c(-c2ccc(C3COC(c4c(Cl)cncc4Cl)=N3)cc2)cccc1C(F)(F)F` (stereo not drawn) [Compound 31], the pest or weed control in assay [1] was below 50%. Further, the pest or weed control at 400 ppm in assay [2] (setting [7]) fell in the range of 60 to 69%.
With `Clc1ccc(-c2ccc(C3COC(c4c(Cl)cncc4Cl)=N3)cc2)cc1` (stereo not drawn) [Compound 16], the pest or weed control in assay [1] was in the range of 90 to 100%. The pest or weed control at 400 ppm in assay [2] is 60 to 69%; in assay [4] it was 90 to 100%; in assay [5] it was 90 to 100%. In addition, the pest or weed control at 50 ppm in assay [3] is below 50%.
As for `CC(C)c1ccc(-c2ccc(C3COC(c4c(Cl)cncc4Cl)=N3)cc2)cc1` (stereo not drawn) [Compound 30], the pest or weed control in assay [1] was 70 to 79%. Moreover, in assay [3] (setting [8]), the pest or weed control at 50 ppm is below 50%. The pest or weed control at 200 ppm in assay [6] was below 50%. Further, the pest or weed control at 400 ppm in assay [4] (setting [9]) was in the range of 60 to 69%; in assay [5] (setting [10]) it was 90 to 100%.
